The source of these data is US20120046246A1, “METHODS FOR TREATING OSTEOCLAST-RELATED DISEASE, COMPOUNDS AND COMPOSITIONS THEREOF” (University of Florida Research Foundation, priority 2008, published 2012).

The test system of assay [1] is osteoclast formation in mouse marrow cultures. Kind of assay: TRAP staining of mouse marrow cultures treated with bis-enoxacin. Set-up: unit of the concentration uncertain. The assay is classed as cell-based. The conditions noted are these: 1 (unit uncertain)0 mM; 6 Days; TRAP positive cells. As for the experimental part: Mouse marrow cultures were treated with bis-enoxacin at the concentrations of 5 mM, 10 mM, 25 mM, 50 mM, and 100 mM respectively, for 6 Days in wells of a 24-well plate. The cells were fixed and stained for tartrate-resistant acid phosphatase (TRAP) activity which is a marker for osteoclasts. The number of TRAP positive mononuclear, multinuclear (2-10 nuclei) and giant (>10 nuclei) were counted.

The test system of assay [2] is mouse marrow osteoclasts. Kind of assay: actin ring count on bone slices pre-treated with bis-enoxacin. The assay is classed as cell-based. The note with it: bone slices pre-treated at 10 mM and 1 mM; 3 Days of culture. As to the method:
Bone slices were incubated with bis-enoxacin at the concentrations of 10 mM and 1 mM respectively. After a 1 Day incubation, the slices were washed 4 times over a period of 24H. Mouse marrow osteoclasts were then plated on the slices, and after 3 Days of culture the cells were fixed and the number of actin rings (a marker for active osteoclasts) was counted.

For assay [3], the system named is mouse marrow osteoclasts on bone slices. Kind of assay: bone resorption pitting quantified by scanning electron microscopy. The note with it: 5 Days. The assay is classed as cell-based. Set-up: dose or concentration left out as unconfirmed. As to the method: Mouse marrow osteoclasts were grown to maturity for 5 Days then scraped and plated on bone slices treated with bis-enoxacin at the concentrations of 30 mM, 10 mM and 1 mM respectively. After 5 Days, the cells were removed and pitting was quantified by scanning electron microscopy.

In assay [4] the target is T1, interaction between recombinantly-expressed B2 subunit and pure rabbit muscle F-actin (Homo sapiens, UniProt P21281).
T1 construct: made in house
T1 sequence (P21281 whole entry): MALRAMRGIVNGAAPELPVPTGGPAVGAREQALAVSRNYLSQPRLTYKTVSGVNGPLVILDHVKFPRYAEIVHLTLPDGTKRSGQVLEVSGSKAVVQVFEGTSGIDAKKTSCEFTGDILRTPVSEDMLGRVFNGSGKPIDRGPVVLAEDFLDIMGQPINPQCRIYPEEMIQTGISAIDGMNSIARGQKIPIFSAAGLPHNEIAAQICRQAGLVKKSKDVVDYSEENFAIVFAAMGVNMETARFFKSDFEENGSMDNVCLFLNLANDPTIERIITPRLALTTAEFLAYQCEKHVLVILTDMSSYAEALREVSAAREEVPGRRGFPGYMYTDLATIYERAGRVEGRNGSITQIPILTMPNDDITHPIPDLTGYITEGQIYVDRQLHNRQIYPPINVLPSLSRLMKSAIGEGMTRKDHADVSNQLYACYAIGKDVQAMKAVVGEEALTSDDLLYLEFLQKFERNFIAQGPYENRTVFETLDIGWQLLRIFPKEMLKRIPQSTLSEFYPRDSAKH
Kind of assay: pelleting assay of B subunit binding to F-actin. The note with it: 100 uM inhibitor compound; recombinant B subunit 1 μM, F-actin 2 μM; densitometry of SDS-PAGE gels; read-out: % inhibition. As to the method: Twenty-one small molecules are tested for their ability to block interaction between recombinantly-expressed B2 subunit and pure rabbit muscle F-actin.
Recombinant B subunit (1 μM) plus/minus F-actin (2 μM)) plus/minus 100 uM inhibitor compounds were incubated for 10 minutes in 20 mM Tris/HCl (pH 7.5), 100 mM NaCl, 1 mM MgCl2, 0.2 mM CaCl2, 0.5 mM ATP, 0.2 mM DTT, then subjected to ultracentrifugation at 180,000×g for 45 min. Supernatants and pellets were collected in SDS-PAGE sample buffer, separated by SDS-PAGE, stained with Coomassie Blue, and densitometry was performed using a Flurchem 8000 (Alpha Innotech, San Leandro Calif.).
The percent inhibition was determined by densitometry of SDS-PAGE gels. The raw densitometric number obtained of the recombinant B subunit band that was pelleted with F-actin, but with no compound present, represented 0% inhibition. The amount of the raw densitometric number of the amount of recombinant B subunit that pelleted with no actin present, but with compound, represented 100% inhibition. The amount of recombinant B subunit that pelleted with actin and the compound being tested was placed as a percentage assuming a linear response.

Assay [5] relates to osteoclast formation in calcitriol-stimulated mouse marrow cultures. Kind of assay: osteoclastogenesis stimulated by calcitriol in mouse marrow cultures. The assay is classed as cell-based. As for the experimental part: Enoxacin and Binhib 2 were then tested for their effects on osteoclastogenesis stimulated by calcitriol in mouse marrow cultures. The mixed cultures represent a model for the complex interactions that regulate bone resorption in vivo. […] Osteoclast and osteoblast-containing mouse bone marrow cultures are obtained as above described. 4-6-week-old Swiss-Webster mice (Harlan, Indianapolis, Ind.) are sacrificed by cervical dislocation. Femurs and tibias are dissected free of adherent tissue; the marrow is expelled by cutting both bone ends and flushing the marrow cavity with MEM D10 using a 25-gauge needle. The marrow cells are washed twice and plated in 6 well plates at a concentration of 1×10^6 nucleated cells/cm^2 in MEM D1 0 containing 10 nM calcitriol. Cultures are fed on the third and fifth day of culture by replacing half of the medium with fresh medium containing calcitriol. Cultures are treated with enoxacin at 10 μM or vehicle control on Day 1, and when the media is refreshed.

The test system of assay [6] is osteoblast formation. Kind of assay: osteoblast formation in mouse marrow cultures, judged by alkaline phosphatase expressing cells. The assay is classed as cell-based. The conditions noted are these: 1-10 μM. As for the experimental part:
Enoxacin and Binhib 2 were then tested for their effects on osteoclastogenesis stimulated by calcitriol in mouse marrow cultures. The mixed cultures represent a model for the complex interactions that regulate bone resorption in vivo.
In addition, at 1-10 μM enoxacin, osteoclast formation was inhibited while osteoblast formation, judged by alkaline phosphatase expressing cells, was not affected. And, at level of 100 μM, enoxacin blocked 90% of the B subunit from binding F-actin.

For assay [7], the system named is mature osteoclasts on bone slices. Kind of assay: ruffled membrane formation / V-ATPase trafficking in mature osteoclasts on bone slices (anti-E subunit antibody). The assay is classed as cell-based. As for the experimental part: FIG. 7 depicts that enoxacin (10 μM) blocks ruffled membrane formation. Mature osteoclasts on bone slices were treated with enoxacin or vehicle control for 3 days, then fixed and labeled with an anti-E subunit antibody. […] Arrows point to representative osteoclasts; The present inventors also tested the effects of enoxacin on osteoclasts that were already mature and loaded onto bone slices. In this experiment, mature osteoclasts on bone slices were treated with enoxacin or vehicle control for 3 days, then fixed and labeled with an anti-E subunit antibody. Control osteoclasts produced many ruffled membranes.

Assay [8] addresses T2, V-ATPase interaction with microfilaments (F-actin) (Mus musculus, UniProt P62814).
T2 construct: endogenous in cells; host or cells: primary mouse marrow osteoclasts (RANKL-differentiated)
Kind of assay: immunoprecipitation of V-ATPase from soluble osteoclast extracts. The conditions noted are these: control extracts treated after homogenization, prior to immunoprecipitation. As to the method:
Immunoprecipitations: To further test whether enoxacin disrupts the capacity of V-ATPase to interact with microfilaments, immunoprecipitations are performed from soluble extracts of osteoclasts that had been treated with enoxacin or vehicle control using anti-E subunit and anti-a3 subunit antibodies developed by the present inventors (Zuo, J., et al. J. Bone Miner. Res. 2006, 21:714-721; Lee, B. S., et al. J. Bone Miner. Res., 1999, 14:2127-2136). It is expected that treatments of control extracts with enoxacin after cells are homogenized, but prior to immunoprecipitation, reduces the amount of F-actin attached to the immunoprecipitated V-ATPase.

The subject of assay [9] is GW bodies. Kind of assay: GW body formation. The assay is classed as cell-based, mouse. As for the experimental part:
GW bodies: GW bodies have been reported to be correlated with miRNA activity (Pauley, K. M., et al. EMBO Rep. 2006, 7:904-910; Lian, S., et al. Cell Cycle 2006, 5:242-245). Enoxacin, an enhancer of miRNA activity, is predicted to increase the number of GW bodies present and/or increase the size of GW bodies. To test whether enoxacin affects GW body formation, calcitriol-stimulated mouse marrow cultures, RANKL-stimulated primary hematopoietic cells and primary calvarial osteoblasts are treated with enoxacin. A dose response curve using doses above and below the IC50 dose is performed for inhibition of osteoclast formation and bone resorption. Osteoclast formation, staining and enumerating TRAP+ cells, and ruffled membrane formation are examined, by treating preformed osteoclasts on bone slices. Cells are fixed at various time points after treatment with enoxacin, and stain with polyclonal antibody against GW bodies and monoclonal anti-DCP1. The number of GW bodies in at least 100 randomly sampled cells is counted. The number of GW bodies is divided by the number of nuclei/cell, as determined by counting DAPI stained nuclei. This experiment is repeated in triplicate. Counts are performed by pre-calibrated assistants who are blinded to the nature of the experiment. Images are taken using a Zeiss Axiovert 200 M microscope and a Zeiss AxioCam MRm camera using the 40×0.75 NA objective.

Assay [10] relates to ovariectomized (OVX) rats. Kind of assay: ovariectomized (OVX) rat model. The note with it: oral daily, 6 weeks. The assay is classed as in vivo. As for the experimental part: Enoxacin is tested in ovariectomized (OVX) rats that lose bone in a manner similar to that of postmenopausal women. This model has been widely and successfully utilized as an early pre-clinical model for osteoporotic disease (Pun, S., et al. Bone, 2000, 27:197-202; Wronski, T. J., et al. Endocrinology, 1993, 132:823-831; Wronski, T. J., et al. Endocrinology, 1988, 123:681-686; Iwaniec, U. T., et al. Endocrinology, 2002, 143:2515-2526). In this study, the effects of systemic administration of enoxacin are examined.
In this study, ligands identified that block V-ATPase/F-actin interactions and bone resorption in vitro are advanced to in vivo testing in OVX rats. Female Sprague Dawley rats are subjected to sham surgery or ovariectomized at 3 months of age (see the preceding references). On the day after surgery, groups of sham operated control and OVX rats are injected subcutaneously (SC) with vehicle or treated with vehicle via oral gavage. A second group of OVX rats are injected SC 3 days/week with 17β-estradiol (Sigma, St. Louis, Mo.) at a dose of 10 μg/kg to inhibit bone resorption and prevent cancellous bone loss. The animals are treated orally with daily doses of enoxacin including 10, 100 and 400 mg/kg body weight. Each group consist of 10 rats. […] Due to the potential for enoxacin to affect intestinal flora, rats are weighed weekly and closely monitored for weight loss and diarrhea. […]

A word on the inhibition: it is the relative decrease from the control value, in per cent. One may read the IC50 as the concentration at which inhibition is half-maximal.

T2 sequence (P62814 whole entry): as the sequence (P21281 whole entry) above, with A25M, V26A, R460K, A464T, F474Y counted along it

As for `CCn1cc(C(=O)O)c(=O)c2cc(F)c(N3CCN(CC(P(=O)(O)O)P(=O)(O)O)CC3)nc21` [bis-enoxacin, 7-(4-(2,2-Diphosphonoethyl)piperazin-1-yl)-1-ethyl-6-fluoro-4-oxo-1,4-dihydro-1,8-naphthyridine-3-carboxylic acid], in [1], the “effects on osteoclast formation compared with enoxacin” value is “identical effects”. Also, the “reduction of actin ring numbers” value in assay [2] was “approximately 60%”. Moreover, in [3], the “bone resorption compared to control” value was “reduced”.

With `CCn1cc(C(=O)O)c(=O)c2cc(F)c(N3CCNCC3)nc21` [enoxacin, 1-ethyl-6-fluoro-4-oxo-7-(piperazin-1-yl)-1,4-dihydro-1,8-naphthyridine-3-carboxylic acid], the inhibition at 100 µM in [4] was 92%. Also, in assay [5] (1 μM), the formation of osteoclasts entry is given as “significantly reduced”. For the same molecule, the osteoclast formation entry in assay [5] (1-10 μM) is listed as “inhibited”; in [5] (concentration not given) it was “inhibits”; in assay [5] (single dose at the onset of the marrow culture period, end of 7 Days), “dramatic reductions”. The IC50 in assay [5] (Osteoclast, calcitriol-stimulated mouse marrow cultures) was found to be 1000 nM. In assay [6], the “osteoblast formation, judged by alkaline phosphatase expressing cells” value was “not affected”. Also, in [7] (10 μM), the “V-ATPase trafficking to ruffled membranes in mature osteoclasts” value is on record as “completely inhibited”. The ruffled membrane formation result was “blocks” in assay [7] (10 μM, 3 days) and “disrupted” in assay [7] (concentration not given). Besides, in assay [7] (mature osteoclasts on bone slices, 3 days), the “E subunit labeling distribution” value is listed as “perinuclear distribution”. Besides, in assay [8], the “amount of F-actin attached to the immunoprecipitated V-ATPase” value is “reduces”. Also, the “number and/or size of GW bodies” value in [9] is listed as “increase”. Also, in assay [10], the “ruffled membranes of osteoclasts along the bone surface” value is “does not have ruffled membranes”.
